Data taken from US9932340B2, “Substituted indoles” (AbbVie Inc., priority 2014, dated 2018).

molecular target: SUV420H1 enzyme (Homo sapiens, UniProt Q4FZB7); test: TR-FRET SAH SUV420H1 enzyme inhibition assay; type: biochemical; settings: Histone Peptide H4(8-30)me1 and SAM, overnight at room temp, TR-FRET detection of SAH, read-out: TR-FRET SAH_SUV420H1 IC50
Method in brief: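 SUV420H1 (90 nM) preincubated 30 min with compound (3-fold dilutions, 50 to 0.00075 μM), then H4(8-30)me1 peptide 5 nM and SAM 4 nM added, overnight at room temp. SAH product detected by TR-FRET with Tb anti-SAH antibody and Oregon Green-SAH in RIPA buffer, 4 h; IC50 from Hill fit, asymptotes fixed 0-100%.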

Chain of SUV420H1 enzyme (Q4FZB7 whole entry): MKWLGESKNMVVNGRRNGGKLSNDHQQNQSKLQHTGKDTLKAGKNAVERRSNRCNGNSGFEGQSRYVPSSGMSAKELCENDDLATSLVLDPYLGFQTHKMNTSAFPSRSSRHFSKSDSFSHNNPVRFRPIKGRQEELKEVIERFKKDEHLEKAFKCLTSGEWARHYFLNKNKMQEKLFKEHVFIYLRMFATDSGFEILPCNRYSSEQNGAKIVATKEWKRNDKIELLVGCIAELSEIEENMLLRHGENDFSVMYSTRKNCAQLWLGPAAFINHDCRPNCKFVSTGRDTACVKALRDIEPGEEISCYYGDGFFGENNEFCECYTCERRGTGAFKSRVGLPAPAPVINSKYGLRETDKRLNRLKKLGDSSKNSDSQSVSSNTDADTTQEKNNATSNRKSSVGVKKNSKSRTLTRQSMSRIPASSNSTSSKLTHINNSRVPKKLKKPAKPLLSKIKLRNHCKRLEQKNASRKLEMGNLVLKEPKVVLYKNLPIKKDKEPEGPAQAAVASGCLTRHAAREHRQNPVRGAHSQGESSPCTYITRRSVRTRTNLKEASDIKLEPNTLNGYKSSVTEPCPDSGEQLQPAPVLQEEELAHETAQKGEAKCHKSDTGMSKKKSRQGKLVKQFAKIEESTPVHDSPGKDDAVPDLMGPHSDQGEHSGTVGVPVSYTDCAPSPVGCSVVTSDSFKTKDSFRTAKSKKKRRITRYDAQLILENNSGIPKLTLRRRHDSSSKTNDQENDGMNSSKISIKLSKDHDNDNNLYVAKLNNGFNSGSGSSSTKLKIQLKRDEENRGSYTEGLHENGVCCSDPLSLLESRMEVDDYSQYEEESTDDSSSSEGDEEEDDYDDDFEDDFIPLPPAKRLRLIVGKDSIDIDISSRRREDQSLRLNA

IC50 [nM]	Structure (SMILES)
98.5	Nc1ncnc2c1ncn2Cc1cc(Cl)cc2cc(CNC(=O)c3cnc4ccsc4c3)[nH]c12 [Example 337, N-({7-[(6-amino-9H-purin-9-yl)methyl]-5-chloro-1H-indol-2-yl}methyl)thieno[3,2-b]pyridine-6-carboxamide]
2850	Nc1ncnc2c1ncn2Cc1cc(Cl)cc2cc(CNC(=O)c3ccc4ncoc4c3)[nH]c12 [Example 338, N-({7-[(6-amino-9H-purin-9-yl)methyl]-5-chloro-1H-indol-2-yl}methyl)-1,3-benzoxazole-6-carboxamide]
6870	Nc1ncnc2c1ncn2Cc1cc(Cl)cc2cc(CNC(=O)c3ccc4ocnc4c3)[nH]c12 [Example 339, N-({7-[(6-amino-9H-purin-9-yl)methyl]-5-chloro-1H-indol-2-yl}methyl)-1,3-benzoxazole-5-carboxamide]
807	Nc1ncnc2c1ncn2Cc1cc(Cl)cc2cc(CNC(=O)c3cnc4ccoc4c3)[nH]c12 [Example 340, N-({7-[(6-amino-9H-purin-9-yl)methyl]-5-chloro-1H-indol-2-yl}methyl)furo[3,2-b]pyridine-6-carboxamide]
947	Nc1ncnc2c1ncn2Cc1cc(Cl)cc2cc(CNC(=O)c3ccc4cn[nH]c4c3)[nH]c12 [Example 342, N-({7-[(6-amino-9H-purin-9-yl)methyl]-5-chloro-1H-indol-2-yl}methyl)-1H-indazole-6-carboxamide]
29100	Nc1ncnc2c1ncn2Cc1cc(Cl)cc2cc(CNC(=O)c3cnc4[nH]ccc4c3)[nH]c12 [Example 347, N-({7-[(6-amino-9H-purin-9-yl)methyl]-5-chloro-1H-indol-2-yl}methyl)-1H-pyrrolo[2,3-b]pyridine-5-carboxamide]
393	Cc1noc2ncc(C(=O)NCc3cc4cc(Cl)cc(Cn5cnc6c(N)ncnc65)c4[nH]3)cc12 [Example 351, N-({7-[(6-amino-9H-purin-9-yl)methyl]-5-chloro-1H-indol-2-yl}methyl)-3-methyl[1,2]oxazolo[5,4-b]pyridine-5-carboxamide]
1280	Cn1nnc2cc(C(=O)NCc3cc4cc(Cl)cc(Cn5cnc6c(N)ncnc65)c4[nH]3)ccc21 [Example 352, N-({7-[(6-amino-9H-purin-9-yl)methyl]-5-chloro-1H-indol-2-yl}methyl)-1-methyl-1H-benzotriazole-5-carboxamide]
> 50000	Cc1n[nH]c2ncc(C(=O)NCc3cc4cc(Cl)cc(Cn5cnc6c(N)ncnc65)c4[nH]3)cc12 [Example 353, N-({7-[(6-amino-9H-purin-9-yl)methyl]-5-chloro-1H-indol-2-yl}methyl)-3-methyl-1H-pyrazolo[3,4-b]pyridine-5-carboxamide]
889	Cc1nc2ccc(C(=O)NCc3cc4cc(Cl)cc(Cn5cnc6c(N)ncnc65)c4[nH]3)cc2s1 [Example 358, N-({7-[(6-amino-9H-purin-9-yl)methyl]-5-chloro-1H-indol-2-yl}methyl)-2-methyl-1,3-benzothiazole-6-carboxamide]
4280	Cc1nc2ccc(C(=O)NCc3cc4cc(Cl)cc(Cn5cnc6c(N)ncnc65)c4[nH]3)cc2o1 [Example 359, N-({7-[(6-amino-9H-purin-9-yl)methyl]-5-chloro-1H-indol-2-yl}methyl)-2-methyl-1,3-benzoxazole-6-carboxamide]
747	Cn1ncc2ccc(C(=O)NCc3cc4cc(Cl)cc(Cn5cnc6c(N)ncnc65)c4[nH]3)cc21 [Example 360, N-({7-[(6-amino-9H-purin-9-yl)methyl]-5-chloro-1H-indol-2-yl}methyl)-1-methyl-1H-indazole-6-carboxamide]
2150	Cn1cnc2cc(C(=O)NCc3cc4cc(Cl)cc(Cn5cnc6c(N)ncnc65)c4[nH]3)ccc21 [Example 361, N-({7-[(6-amino-9H-purin-9-yl)methyl]-5-chloro-1H-indol-2-yl}methyl)-1-methyl-1H-benzimidazole-5-carboxamide]
636	Cn1ncc2cc(C(=O)NCc3cc4cc(Cl)cc(Cn5cnc6c(N)ncnc65)c4[nH]3)ccc21 [Example 362, N-({7-[(6-amino-9H-purin-9-yl)methyl]-5-chloro-1H-indol-2-yl}methyl)-1-methyl-1H-indazole-5-carboxamide]
4300	Cc1nc2cc(C(=O)NCc3cc4cc(Cl)cc(Cn5cnc6c(N)ncnc65)c4[nH]3)ccc2[nH]1 [Example 363, N-({7-[(6-amino-9H-purin-9-yl)methyl]-5-chloro-1H-indol-2-yl}methyl)-2-methyl-1H-benzimidazole-5-carboxamide]
3280	Cc1cc2cc(C(=O)NCc3cc4cc(Cl)cc(Cn5cnc6c(N)ncnc65)c4[nH]3)ccc2o1 [Example 364, N-({7-[(6-amino-9H-purin-9-yl)methyl]-5-chloro-1H-indol-2-yl}methyl)-2-methyl-1-benzofuran-5-carboxamide]
591	Cc1nc2cc(C(=O)NCc3cc4cc(Cl)cc(Cn5cnc6c(N)ncnc65)c4[nH]3)ccc2n1C [Example 367, N-({7-[(6-amino-9H-purin-9-yl)methyl]-5-chloro-1H-indol-2-yl}methyl)-1,2-dimethyl-1H-benzimidazole-5-carboxamide]
1690	CC(C)c1noc2ncc(C(=O)NCc3cc4cc(Cl)cc(Cn5cnc6c(N)ncnc65)c4[nH]3)cc12 [Example 370, N-({7-[(6-amino-9H-purin-9-yl)methyl]-5-chloro-1H-indol-2-yl}methyl)-3-(propan-2-yl)[1,2]oxazolo[5,4-b]pyridine-5-carboxamide]
21500	CC(C)n1nnc2cc(C(=O)NCc3cc4cc(Cl)cc(Cn5cnc6c(N)ncnc65)c4[nH]3)ccc21 [Example 371, N-({7-[(6-amino-9H-purin-9-yl)methyl]-5-chloro-1H-indol-2-yl}methyl)-1-(propan-2-yl)-1H-benzotriazole-5-carboxamide]

The remaining lines, values behind:

Structure (SMILES)	IC50 [nM]
Nc1ncnc2c1ncn2Cc1cc(Cl)cc2cc(CNC(=O)c3ccc4scnc4c3)[nH]c12 [Example 336, N-({7-[(6-amino-9H-purin-9-yl)methyl]-5-chloro-1H-indol-2-yl}methyl)-1,3-benzothiazole-5-carboxamide]	431
Nc1ncnc2c1ncn2Cc1cc(Cl)cc2cc(CNC(=O)c3ccc4nc(O)sc4c3)[nH]c12 [Example 341]	3030
Nc1ncnc2c1ncn2Cc1cc(Cl)cc2cc(CNC(=O)c3ccc4[nH]ccc4n3)[nH]c12 [Example 343, N-({7-[(6-amino-9H-purin-9-yl)methyl]-5-chloro-1H-indol-2-yl}methyl)-1H-pyrrolo[3,2-b]pyridine-5-carboxamide]	4820
Nc1ncnc2c1ncn2Cc1cc(Cl)cc2cc(CNC(=O)c3ccc4[nH]ncc4c3)[nH]c12 [Example 346, N-({7-[(6-amino-9H-purin-9-yl)methyl]-5-chloro-1H-indol-2-yl}methyl)-1H-indazole-5-carboxamide]	4660
Nc1ncnc2c1ncn2Cc1cc(Cl)cc2cc(CNC(=O)c3cnc4[nH]ccc4c3Cl)[nH]c12 [Example 348, N-({7-[(6-amino-9H-purin-9-yl)methyl]-5-chloro-1H-indol-2-yl}methyl)-4-chloro-1H-pyrrolo[2,3-b]pyridine-5-carboxamide]	7270
Nc1ncnc2c1ncn2Cc1cc(Cl)cc2cc(CNC(=O)c3nc4[nH]ccc4cc3Cl)[nH]c12 [Example 349, N-({7-[(6-amino-9H-purin-9-yl)methyl]-5-chloro-1H-indol-2-yl}methyl)-5-chloro-1H-pyrrolo[2,3-b]pyridine-6-carboxamide]	8780
Nc1ncnc2c1ncn2Cc1cc(Cl)cc2cc(CNC(=O)c3ccc4[nH]ncc4c3F)[nH]c12 [Example 350, N-({7-[(6-amino-9H-purin-9-yl)methyl]-5-chloro-1H-indol-2-yl}methyl)-4-fluoro-1H-indazole-5-carboxamide]	2740
Nc1ncnc2c1ncn2Cc1cc(Cl)cc2cc(CNC(=O)c3ccc4sccc4c3)[nH]c12 [Example 354, N-({7-[(6-amino-9H-purin-9-yl)methyl]-5-chloro-1H-indol-2-yl}methyl)-1-benzothiophene-5-carboxamide]	5960
Nc1ncnc2c1ncn2Cc1cc(Cl)cc2cc(CNC(=O)c3ccc4occc4c3)[nH]c12 [Example 355, N-({7-[(6-amino-9H-purin-9-yl)methyl]-5-chloro-1H-indol-2-yl}methyl)-1-benzofuran-5-carboxamide]	4870
Nc1ncnc2c1ncn2Cc1cc(Cl)cc2cc(CNC(=O)c3ccc4cc[nH]c4c3)[nH]c12 [Example 356, N-({7-[(6-amino-9H-purin-9-yl)methyl]-5-chloro-1H-indol-2-yl}methyl)-1H-indole-6-carboxamide]	2650
Nc1ncnc2c1ncn2Cc1cc(Cl)cc2cc(CNC(=O)c3ccc4[nH]ccc4c3)[nH]c12 [Example 357, N-({7-[(6-amino-9H-purin-9-yl)methyl]-5-chloro-1H-indol-2-yl}methyl)-1H-indole-5-carboxamide]	12000
Cn1ccc2ccc(C(=O)NCc3cc4cc(Cl)cc(Cn5cnc6c(N)ncnc65)c4[nH]3)cc21 [Example 365]	1880
Cn1ccc2cc(C(=O)NCc3cc4cc(Cl)cc(Cn5cnc6c(N)ncnc65)c4[nH]3)ccc21 [Example 366, N-({7-[(6-amino-9H-purin-9-yl)methyl]-5-chloro-1H-indol-2-yl}methyl)-1-methyl-1H-indole-5-carboxamide]	2870
CCc1nc2ccc(C(=O)NCc3cc4cc(Cl)cc(Cn5cnc6c(N)ncnc65)c4[nH]3)cc2[nH]1 [Example 368, N-({7-[(6-amino-9H-purin-9-yl)methyl]-5-chloro-1H-indol-2-yl}methyl)-2-ethyl-1H-benzimidazole-6-carboxamide]	7610
N#Cc1c[nH]c2ccc(C(=O)NCc3cc4cc(Cl)cc(Cn5cnc6c(N)ncnc65)c4[nH]3)cc12 [Example 369, N-({7-[(6-amino-9H-purin-9-yl)methyl]-5-chloro-1H-indol-2-yl}methyl)-3-cyano-1H-indole-5-carboxamide]	> 50000
